Our source for the MIC values is DBAASP.

The MIC is the smallest concentration in the dilution series that meets the test's criterion for growth inhibition. A high value points to a less susceptible organism.

Common to all, as to assay: ≥ marks a high value that may be exact or a test limit, other limits are often not marked, values filed in µg/mL are converted to µM
Assay [1] concerns Lacticaseibacillus rhamnosus 1.0936.
The test system of assay [2] is Staphylococcus aureus ATCC 29213.
Assay [3] deals with Escherichia coli O157:H7 CICC 21530.
The test system of assay [4] is Escherichia coli K88.
The test system of assay [5] is Salmonella enterica subsp. enterica serovar Typhimurium ATCC 14028.
For assay [6], the system named is Pseudomonas aeruginosa PAO1.
In assay [7] the test system is Salmonella enterica subsp. enterica serovar Pullorum C79-13.
Assay [8] deals with Lacticaseibacillus rhamnosus 1.0911.
Assay [9] deals with Pseudomonas aeruginosa ATCC 27853.
Assay [10] relates to Staphylococcus epidermidis ATCC 12228.
In assay [11] the test system is Lacticaseibacillus rhamnosus 8014.
Assay [12] has as its system Staphylococcus aureus ATCC 43300.
In assay [13] the test system is Salmonella enterica subsp. enterica serovar Choleraesuis CVCC 503.
The test system of assay [14] is Lacticaseibacillus rhamnosus 1.9021.
For assay [15], the system named is Streptococcus agalactiae BNCC 185941.
Assay [16] relates to Legionella pneumophila Lens.
Assay [17] concerns Enterococcus faecalis KCCM 11814.
Assay [18] relates to Pseudomonas aeruginosa CCARM 2180.
Assay [19] concerns Acinetobacter baumannii KCCM 1053.
The test system of assay [20] is Acinetobacter baumannii ATCC BAA-1605.
Assay [21] has as its system Staphylococcus aureus KCTC 1621.
Assay [22] deals with Escherichia coli KCTC 1682.
Assay [23] has as its system Salmonella typhimurium KCTC 1926.
For assay [24], the system named is Staphylococcus epidermidis KCTC 1917.
In assay [25] the test system is Enterococcus faecalis ATCC 51575.
For assay [26], the system named is Staphylococcus aureus KCCM 40510.
In assay [27] the test system is Pseudomonas aeruginosa KCTC 1637.
Assay [28] concerns Bacillus subtilis KCTC 3068.
For assay [29], the system named is Escherichia coli D31.
Assay [30] relates to Staphylococcus aureus ATCC 27660.
Assay [31] concerns Klebsiella pneumoniae ATCC 700603.
In assay [32] the test system is Pseudomonas aeruginosa ATCC 10145.
Assay [33] deals with Penicillium expansum.
Assay [34] concerns Candida albicans IOC 4558.
In assay [35] the test system is Cryptococcus neoformans.
The test system of assay [36] is Cladosporium sp.
The test system of assay [37] is Escherichia coli SBS 363.
The test system of assay [38] is Candida tropicalis IOC 4560.
Assay [39] has as its system Micrococcus luteus A270.
Assay [40] concerns Pseudomonas aeruginosa JC115.
In assay [41] the test system is Bacillus subtilis JC443.
For assay [42], the system named is Escherichia coli JC113.
Assay [43] relates to Staphylococcus aureus JC114.
Assay [44] concerns Candida tropicalis 092422.

Converted amounts (≈) assume the structure as drawn. Where only a bound is given, the exact number is not on record here.

With `CC(C)C[C@H](NC(=O)CNC(=O)[C@H](CC(C)C)NC(=O)[C@H](Cc1c[nH]c2ccccc12)NC(=O)[C@H](CC(C)C)NC(=O)CNC(=O)[C@H](CC(C)C)NC(=O)[C@H](CCCCN)NC(=O)[C@@H](N)CCCCN)C(=O)N[C@@H](CCCCN)C(=O)N[C@@H](CCCCN)C(N)=O` [KKLGLWLGLKK], the minimum inhibitory concentration (MIC) in [1] is no less than 128 µM; in [2], greater than 128 µM; in [3], 8 µM (≈ 10.3 µg/mL); in [4], 8 µM (≈ 10.3 µg/mL); in assay [5] it was 64 µM (≈ 82.1 µg/mL); in assay [6], 64 µM (≈ 82.1 µg/mL). The minimal inhibitory concentration (MIC) in assay [7] was 8 µM (≈ 10.3 µg/mL); in assay [8], no less than 128 µM; in assay [9], 32 µM (≈ 41 µg/mL); in [10] it was greater than 128 µM; in assay [11], no less than 128 µM; in [12], greater than 128 µM. Also, the MIC in assay [13] is no less than 64 µM; in assay [14], no less than 128 µM; in [15] it was no less than 128 µM.

For `CC[C@H](C)[C@H](NC(=O)[C@H](CC(C)C)NC(=O)CNC(=O)[C@H](CCCCN)NC(=O)[C@@H](NC(=O)[C@@H](NC(=O)[C@H](CCC(=O)O)NC(=O)[C@H](Cc1ccccc1)NC(=O)[C@@H](NC(=O)[C@H](CCCCN)NC(=O)[C@H](C)NC(=O)[C@@H](NC(=O)[C@@H](NC(=O)[C@H](CC(=O)O)NC(=O)[C@H](C)NC(=O)[C@@H](N)CCSC)C(C)C)[C@@H](C)CC)[C@@H](C)CC)[C@@H](C)CC)C(C)C)C(=O)N[C@@H](CC(=O)O)C(=O)N[C@@H](CCC(N)=O)C(=O)N[C@@H](Cc1ccccc1)C(=O)N[C@H](C(=O)N[C@@H](CCC(N)=O)C(=O)N[C@@H](CCCCN)C(=O)O)[C@@H](C)O` [MADVIAKIFEIVKGLIDQFTQK], the MIC in assay [16] is 1.85 µM (≈ 4.64 µg/mL).

In the case of `CC[C@H](C)[C@@H]1NC(=O)[C@H](CCCCN)NC(=O)[C@@H](NC(=O)[C@H](CC(C)C)NC(=O)[C@@H](N)CCCCN)CSSC[C@@H](C(=O)N[C@@H](CCCCN)C(=O)O)NC(=O)[C@H](C(C)C)NC(=O)[C@H](CCCCN)NC(=O)[C@H]([C@@H](C)CC)NC(=O)[C@H](C(C)C)NC(=O)[C@H](C(C)C)NC1=O` [KLCKIVVIKVCK], the minimum inhibitory concentration (MIC) was no less than 64 µM in [17]; no less than 64 µM in assay [18]; no less than 64 µM in assay [19]; no less than 64 µM in assay [20]; no less than 64 µM in assay [21]; 8 µM (≈ 11 µg/mL) in assay [22]. Further, the MIC was no less than 64 µM in [23]; no less than 32 µM in assay [24]; no less than 64 µM in [25]; no less than 64 µM in assay [26]; no less than 64 µM in [27]; no less than 64 µM in [28].

Consider `CC[C@H](C)[C@H](NC(=O)CNC(=O)[C@H](CCCCN)NC(=O)[C@H](Cc1ccccc1)NC(=O)[C@H](CC(C)C)NC(=O)[C@H](CCCCN)NC(=O)[C@H](CCCCN)NC(=O)[C@H](C)NC(=O)[C@H](CCCCN)NC(=O)[C@H](CCCCN)NC(=O)[C@H](Cc1ccccc1)NC(=O)CNC(=O)[C@H](CCCCN)NC(=O)[C@H](C)NC(=O)[C@H](Cc1c[nH]c2ccccc12)NC(=O)[C@@H](NC(=O)[C@H](CCCCN)NC(=O)[C@@H](NC(=O)[C@H](CC(C)C)NC(=O)[C@H](CCCCN)NC(=O)[C@@H](N)CCCCN)[C@@H](C)CC)C(C)C)C(=O)NCC(=O)O` [KKLIKVWAKGFKKAKKLFKGIG], for which the MIC in [29] stood at 0.94 µM (≈ 2.37 µg/mL); in [30], 0.94 µM (≈ 2.37 µg/mL); in assay [31] it was 1.88 µM (≈ 4.73 µg/mL); in [32], 1.88 µM (≈ 4.73 µg/mL).

For `CC(C)C[C@H](NC(=O)[C@H](Cc1ccccc1)NC(=O)[C@H](CC(=O)O)NC(=O)CNC(=O)[C@H](CCC(=O)O)NC(=O)CNC(=O)[C@H](CO)NC(=O)[C@H](CC(=O)O)NC(=O)[C@H](C)N)C(=O)N[C@@H](C)C(=O)N[C@@H](CCC(=O)O)C(=O)NCC(=O)NCC(=O)NCC(=O)N[C@H](C(=O)N[C@@H](CCCN=C(N)N)C(=O)O)C(C)C` [ADSGEGDFLAEGGGVR], the minimal inhibitory concentration (MIC) is no less than 59.4 µM in assay [33]; no less than 59.4 µM in [34]; no less than 59.4 µM in assay [35]; no less than 59.4 µM in assay [36]; 7.39 µM (≈ 11.4 µg/mL) in assay [37]; 7.39 µM (≈ 11.4 µg/mL) in assay [9]. In addition, the minimal inhibitory concentration (MIC) in assay [38] is 7.39 µM (≈ 11.4 µg/mL); in assay [39], no less than 59.4 µM.

On to `NC(=O)[C@H](Cc1ccccc1)NC(=O)[C@@H]1CSSC[C@H](NC(=O)[C@H](Cc2ccccc2)NC(=O)[C@H](Cc2ccccc2)NC(=O)[C@@H](N)Cc2ccccc2)C(=O)N[C@@H](CO)C(=O)N[C@@H](CCCN=C(N)N)C(=O)N1` [FFFCSRCF], for which the MIC is no less than 157 µM in [40], no less than 171 µM in assay [41], no less than 152 µM in [42] and no less than 180 µM in [43].

Compound `CC[C@H](C)[C@H](NC(=O)[C@H](C)NC(=O)[C@@H]1CCCN1C(=O)[C@@H](NC(=O)[C@@H](N)Cc1ccccc1)C(C)C)C(=O)N[C@@H](CC(C)C)C(=O)N[C@H]1CSSC[C@@H](C(=O)O)NC(=O)[C@H]([C@@H](C)O)NC(=O)[C@H](CCCCN)NC(=O)[C@H](CC(C)C)NC(=O)[C@H]([C@@H](C)CC)NC(=O)[C@H](CO)NC1=O` [FVPAILCSILKTC] yielded an MIC in assay [44] of no less than 71 µM.
